# Read-outs that look alike come from different tables or passages of the source.
# Target: T1, HCV NS3-4A serine protease (full-length NS3-4A protein, genotype 1a, strain HCV-1) (Hepatitis C virus genotype 1a, UniProt P26664)
# T1 construct: using the full-length NS3-4A protein (genotype 1a, strain HCV-1)
# Experiment: HCV NS3-4A protease assay
# Assay type: biochemical
# Method: The inhibitory activity of certain compounds of Table A against HCV NS3-4A serine protease is determined in a homogenous assay using the full-length NS3-4A protein (genotype 1a, strain HCV-1) and a commercially available internally-quenched fluorogenic peptide substrate as described by Taliani, M., et al. 1996 Anal. Biochem. 240:60-67, which is incorporated by reference in its entirety.
# T1 sequence (P26664 1658-1711): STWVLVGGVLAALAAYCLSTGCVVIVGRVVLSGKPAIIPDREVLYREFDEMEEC
# T1 sequence (P26664 1027-1657): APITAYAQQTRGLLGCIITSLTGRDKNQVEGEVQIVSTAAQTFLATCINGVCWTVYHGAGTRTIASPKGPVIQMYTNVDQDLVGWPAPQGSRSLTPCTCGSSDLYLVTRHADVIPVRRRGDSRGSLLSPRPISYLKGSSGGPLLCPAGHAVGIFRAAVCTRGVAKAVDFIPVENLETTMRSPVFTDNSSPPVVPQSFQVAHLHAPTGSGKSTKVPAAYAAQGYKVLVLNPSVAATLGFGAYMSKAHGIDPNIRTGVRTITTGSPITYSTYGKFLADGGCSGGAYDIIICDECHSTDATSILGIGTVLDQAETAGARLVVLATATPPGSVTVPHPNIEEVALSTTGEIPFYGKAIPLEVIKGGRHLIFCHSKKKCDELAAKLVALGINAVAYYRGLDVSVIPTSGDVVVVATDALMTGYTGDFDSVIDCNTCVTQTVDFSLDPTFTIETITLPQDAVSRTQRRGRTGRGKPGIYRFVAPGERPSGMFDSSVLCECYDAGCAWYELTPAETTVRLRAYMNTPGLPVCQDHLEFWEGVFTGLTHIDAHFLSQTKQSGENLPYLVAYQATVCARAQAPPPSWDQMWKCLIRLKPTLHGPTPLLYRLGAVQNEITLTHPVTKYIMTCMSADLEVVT
IC50 (read-out: Protease IC50),SMILES,IC50 (Protease IC50)
–,"C=C[C@@H]1C[C@]1(NC(=O)[C@@H]1C[C@@]2(CN1C(=O)[C@@H](NC(=O)[C@@H]1CCCCCCCN3CCCC[C@H]3C(=O)N1)C(C)(C)C)C(C)(C)C21CCC1)C(=O)NS(=O)(=O)C1CC1 [Compound 38, (5R,8S)-N-{(1R,2S)-1-[(cyclopropylsulfonyl)carba-moyl]-2-vinylcyclopropyl}-7-[(2S)-3,3-dimethyl-2-({[(3S,15aS)-1-oxotetradecahydro-2H-pyrido[1,2-a][1,4]diazacyclododecin-3-yl]carbonyl}amino)butanoyl]-10,10-dimethyl-7-azadispiro[3.0.4.1]decane-8-carboxamide]",8 nM
–,"C=C[C@@H]1C[C@]1(NC(=O)[C@@H]1C[C@@]2(CN1C(=O)[C@@H](NC(=O)[C@@H](NC(=O)c1cc(C(C)C)n[nH]1)C(C)(C)C)C(C)(C)C)C(C)(C)C21CCC1)C(=O)NS(=O)(=O)C1CC1 [Compound 39, (5R,8S)-N-{(1R,2S)-1-[(cyclopropylsulfonyl)carba-moyl]-2-vinylcyclopropyl}-7-[(2S)-2-{[(2S)-2-{[(3-isopropyl-1H-pyrazol-5-yl)carbonyl]amino}-3,3-dimethylbutanoyl]amino}-3,3-dimethylbutanoyl]-10,10-dimethyl-7-azadispiro[3.0.4.1]decane-8-carboxamide]",6 nM
–,"C=C[C@@H]1C[C@]1(NC(=O)[C@@H]1C[C@@]2(CN1C(=O)[C@@H](NC(=O)[C@@H](NC(=O)C1CNC(=O)N1)C(C)(C)C)C(C)(C)C)C(C)(C)C21CCC1)C(=O)NS(=O)(=O)C1CC1 (stereo partly drawn) [Compound 40, (5R,8S)-N-{(1R,2S)-1-[(cyclopropylsulfonyl)carba-moyl]-2-vinylcyclopropyl}-7-[(2S)-2-{[(2S)-3,3-dimethyl-2-{[(2-oxoimidazolidin-4-yl)carbonyl]amino}butanoyl]amino}-3,3-dimethylbutanoyl]-10,10-dimethyl-7-azadispiro[3.0.4.1]decane-8-carboxamide]",10 nM
–,"C=C[C@@H]1C[C@]1(NC(=O)[C@@H]1C[C@@]2(CN1C(=O)[C@@H](NC(=O)[C@@H](NC(=O)c1ncn[nH]1)C(C)(C)C)C(C)(C)C)C(C)(C)C21CCC1)C(=O)NS(=O)(=O)C1CC1 [Compound 41, (5R,8S)-N-{(1R,2S)-1-[(cyclopropylsulfonyl)carba-moyl]-2-vinylcyclopropyl}-7-[(2S)-2-({(2S)-3,3-dimethyl-2-[(1H-1,2,4-triazol-5-ylcarbonyl)amino]butanoyl}amino)-3,3-dimethylbutanoyl]-10,10-dimethyl-7-azadispiro[3.0.4.1]decane-8-carboxamide]",25 nM
140 nM,"C=C[C@@H]1C[C@]1(NC(=O)[C@@H]1C[C@@]2(CN1C(=O)[C@@H](NC(=O)O[C@H](C(=O)N(C)C)C(C)(C)C)C(C)(C)C)C(C)(C)C21CCC1)C(=O)NS(=O)(=O)C1CC1 [Compound 42, (1S)-1-(dimethylcarbamoyl)-2,2-dimethylpropyl [(1S)-1-{[(5R,8S)-8-({(1R,2S)-1-[(cyclopropylsulfonyl)carba-moyl]-2-vinylcyclopropyl}carbamoyl)-10,10-dimethyl-7-azadispiro[3.0.4.1]dec-7-yl]carbonyl}-2,2-dimethylpropyl]carbamate]",–
450 nM,"C=C[C@@H]1C[C@]1(NC(=O)[C@@H]1C[C@@]2(CN1C(=O)[C@@H](CC(=O)OC(C)(C)C)C(C)(C)C)C(C)(C)C21CCC1)C(=O)NS(=O)(=O)C1CC1 [Compound 43, tert-butyl (3S)-3-{[(5R,8S)-8-({(1R,2S)-1-[(cyclopropylsulfonyl)carba-moyl]-2-vinylcyclopropyl}carbamoyl)-10,10-dimethyl-7-azadispiro[3.0.4.1]dec-7-yl]carbonyl}-4,4-dimethylpentanoate]",–
